The results in this text go back to patent US7897591B2, “Method of treating fatty liver disease” (priority 2005, dated 2011).

Experiment [1] relates to C57BL/6 mice. The experiment can be described thus: MR spectroscopy of percentage liver fat content in HCD mouse model. The format is in vivo. The note with it: HCD+MAR mice, 100 mg/kg twice daily orogastric gavage, 19 days; mean±SEM; P<0.05 vs HCD-only (24.1±1.7%). The method, then: Experiments were performed on 5-6 week-old C57BL/6 mice (Jackson Laboratories, Bar Harbor, Me.). The animals, in groups of five, were housed in a barrier room and were acclimated to their environment for at least 72 hours prior to the initiation of each experiment. Animal protocols complied with the NIH Animal Research Advisory Committee guidelines and were approved by the Children's Hospital Boston Animal Care and Use Committee. Control animals (n=5) received normal chow and water ad libitum. All animals in the experimental groups were fed a fat-free, high carbohydrate liquid diet (HCD) ad libitum placed in one bottle per cage as previously described (3, 62). No additional sources of nutrition or hydration were provided. […] Three 2 mm thick slices were imaged for each sample and the saturation recovery curves were generated from signal intensities measured in identically sized regions of interest within a given slice. […] Spectra were obtained following Fourier transformation and phasing, and percent fat content was determined relative to water by numerical integration of the areas under the lipid and water peaks by an independent blinded reviewer.

The subject of experiment [2] is C57BL/6 mice. Put plainly: Fatty acid analysis of serum and liver lipids (triglycerides, phospholipids) in HCD mouse model. The format is in vivo. Here is the method:
Experiments were performed on 5-6 week-old C57BL/6 mice (Jackson Laboratories, Bar Harbor, Me.). The animals, in groups of five, were housed in a barrier room and were acclimated to their environment for at least 72 hours prior to the initiation of each experiment. Animal protocols complied with the NIH Animal Research Advisory Committee guidelines and were approved by the Children's Hospital Boston Animal Care and Use Committee. Control animals (n=5) received normal chow and water ad libitum. All animals in the experimental groups were fed a fat-free, high carbohydrate liquid diet (HCD) ad libitum placed in one bottle per cage as previously described (3, 62). No additional sources of nutrition or hydration were provided. The HCD liquid solution contained 20% dextrose, a commercial mixture of 2% essential and nonessential amino acids (TrophAmine, B. Braun Medical, Irvine, Calif.), 2 ml trace elements (Trace Elements Injection 4, USP—Pediatric, American Regent Shirley, N.Y.), and 5 ml multivitamins (M.V.I. Pediatric™, Mayne Pharma, Paramus, N.J.). Each liter of HCD contained 30 meq sodium, 20 meq potassium chloride, 15 meq calcium, 10 meq magnesium, and 10 mM phosphate. The bottles were replaced daily with fresh HCD solution. HCD animals (n=5) received HCD only and no additional treatment for 19 days. The HCD+MAR animals (n=15) additionally received 100 mg/kg of Marimastat™ in 0.45% methylcellulose (Sigma-Aldrich Corporation, St. Louis, Mo.) vehicle twice daily via orogastric gavage. The animals were individually weighed every third day and at sacrifice. Fatty acid analysis was conducted as described previously (1, 2, 31). Briefly, lipids were extracted from serum and livers, and then fractionated into triglycerides and phospholipids by solid phase chromatography using an aminopropyl column. After appropriate processing, samples were injected into a Hewlett Packard 5890A gas chromatograph for analysis.

A further experiment concerns IL-6. Put plainly: ELISA for serum IL-6 levels. The note with it: HCD+MAR vs HCD-only group, P=0.001. The format is in vivo, mouse. The method, then:
Control animals (n=5) received normal chow and water ad libitum. All animals in the experimental groups were fed a fat-free, high carbohydrate liquid diet (HCD) ad libitum placed in one bottle per cage as previously described (3, 62). No additional sources of nutrition or hydration were provided. The HCD liquid solution contained 20% dextrose, a commercial mixture of 2% essential and nonessential amino acids (TrophAmine, B. Braun Medical, Irvine, Calif.), 2 ml trace elements (Trace Elements Injection 4, USP—Pediatric, American Regent Shirley, N.Y.), and 5 ml multivitamins (M.V.I. Pediatric™, Mayne Pharma, Paramus, N.J.). Each liter of HCD contained 30 meq sodium, 20 meq potassium chloride, 15 meq calcium, 10 meq magnesium, and 10 mM phosphate. The bottles were replaced daily with fresh HCD solution. HCD animals (n=5) received HCD only and no additional treatment for 19 days. The HCD+MAR animals (n=15) additionally received 100 mg/kg of Marimastat™ in 0.45% methylcellulose (Sigma-Aldrich Corporation, St. Louis, Mo.) vehicle twice daily via orogastric gavage. The animals were individually weighed every third day and at sacrifice. Mouse serum IL-6 levels were determined using a commercial ELISA kit (Quantikine®, R&D systems, Inc., Minneapolis, Minn.). Optical density was read at 450 nm and analyzed with Softmax® PRO Software (Molecular Devices Corporation, Sunnyvale, Calif.).

Take `CNC(=O)[C@@H](NC(=O)[C@H](CC(C)C)[C@H](O)C(=O)NO)C(C)(C)C` [Marimastat]: the “liver fat content by MR spectroscopy” value in the experiment on C57BL/6 mice [1] was 8.1±1.2%. In addition, the hepatic triglyceride level result in the experiment with C57BL/6 mice [2] (HCD+MAR vs HCD, remained higher than in controls) is “significantly reduced”. Also, the “serum triglyceride and phospholipids” value in the experiment with C57BL/6 mice [2] (HCD+MAR, reduced in HCD-only compared to control) is reported as “normalized”. In the experiment with C57BL/6 mice [2] (among the three groups), the hepatic phospholipids entry was “no significant differences”. The “serum IL-6 level” value in the experiment on IL-6 is on record as “significantly higher”.
